In patent US10160762B2, “6-alkyl dihydropyrazolopyrimidinone compounds as PDE2 inhibitors” (Merck Sharp & Dohme Corp., priority 2015, dated 2018):
Where two headings read alike, the source gives them in different places.

Target: T1, Rhesus PDE2A3 (Macaca mulatta, UniProt B3VTJ2)
T1 construct: made in house; host or cells: AD293 cells, transient transfection; supernatant of sonicated lysate
T1 sequence (B3VTJ2 1-941): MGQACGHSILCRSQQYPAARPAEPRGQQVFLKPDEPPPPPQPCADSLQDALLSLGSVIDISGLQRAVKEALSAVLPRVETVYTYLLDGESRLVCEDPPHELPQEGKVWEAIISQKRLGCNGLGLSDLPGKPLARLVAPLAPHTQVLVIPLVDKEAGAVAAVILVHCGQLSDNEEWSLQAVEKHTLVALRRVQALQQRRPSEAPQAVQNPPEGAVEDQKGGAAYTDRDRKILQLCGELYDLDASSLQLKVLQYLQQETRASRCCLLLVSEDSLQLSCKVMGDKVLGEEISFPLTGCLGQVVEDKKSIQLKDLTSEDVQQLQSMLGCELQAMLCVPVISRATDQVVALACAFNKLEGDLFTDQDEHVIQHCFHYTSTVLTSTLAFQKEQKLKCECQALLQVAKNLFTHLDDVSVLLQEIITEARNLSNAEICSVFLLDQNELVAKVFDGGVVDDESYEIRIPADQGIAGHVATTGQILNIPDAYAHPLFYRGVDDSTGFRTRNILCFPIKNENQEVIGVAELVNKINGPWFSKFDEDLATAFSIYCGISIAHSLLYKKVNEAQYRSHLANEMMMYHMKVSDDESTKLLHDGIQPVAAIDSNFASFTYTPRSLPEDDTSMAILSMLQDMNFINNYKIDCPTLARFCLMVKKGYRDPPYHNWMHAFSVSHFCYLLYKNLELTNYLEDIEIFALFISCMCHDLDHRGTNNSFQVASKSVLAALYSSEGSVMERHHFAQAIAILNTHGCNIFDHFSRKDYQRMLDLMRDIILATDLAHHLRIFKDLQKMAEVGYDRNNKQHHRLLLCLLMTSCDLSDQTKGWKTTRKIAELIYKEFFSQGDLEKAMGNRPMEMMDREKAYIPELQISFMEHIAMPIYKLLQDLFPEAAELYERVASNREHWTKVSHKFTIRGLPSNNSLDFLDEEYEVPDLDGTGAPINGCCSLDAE
Assay: PDE2 fluorescence polarization (IMAP FP) inhibition assay, rhesus PDE2A3
Type: biochemical, rhesus macaque
Method in brief: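 Enzyme source was the lysate supernatant of AD293 cells transiently expressing rhesus PDE2A3, diluted to give 20% conversion of 50 nM FAM-cAMP, with 1 µM cGMP as activator. Buffer was 10 mM Tris pH 7.2, 10 mM MgCl2, 1 mM DTT.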

[1] = Lab A, read-out: Rhesus PDE2 Ki (nM) Lab A
[2] = Lab B, read-out: Rhesus PDE2 Ki (nM) Lab B

Structure (SMILES) | Ki [1] [nM] | Ki [2] [nM]
Cc1nc(-c2nc3c(c(C)nn3C(C)c3ccc(C(F)(F)F)cc3)c(=O)[nH]2)c(C)o1 (stereo not drawn) [Example 54, 6-(2,5-Dimethyl-1,3-oxazol-4-yl)-3-methyl-1-{1-[4-(trifluoromethyl)phenyl]ethyl}-1,5-dihydro-4H-pyrazolo[3,4-d]pyrimidin-4-one] | 32 | –
Cc1nc2c(c(C(F)F)nn2C(C)c2ccc(OC(F)F)cc2)c(=O)[nH]1 (single isomer, unassigned) [Example 182, (S)- or (R)-1-(1-(4-(Difluoromethoxy)phenyl)ethyl)-3-(difluoromethyl)-6-methyl-1H-pyrazolo[3,4-d]pyrimidin-4(5H)-one] | – | 1.2
Cc1nc2c(c(CF)nn2C(C)c2ccc(C(F)(F)F)cc2)c(=O)[nH]1 (stereo not drawn) [Example 204, 3-(Fluoromethyl)-6-methyl-1-{1-[4-(trifluoromethyl)phenyl]ethyl}-1,5-dihydro-4H-pyrazolo[3,4-d]pyrimidin-4-one] | 4 | –
COc1ccc(Cc2nc3c(c(CF)nn3C(C)c3ccc(C(F)(F)F)cc3)c(=O)[nH]2)cc1OC (single isomer, unassigned) [Example 223, (S)- or (R)-6-(3,4-Dimethoxybenzyl)-3-(fluoromethyl)-1-(1-(4-(trifluoromethyl)phenyl)ethyl)-1,5-dihydro-4H-pyrazolo[3,4-d]pyrimidin-4-one] | 26 | –
Cc1nn(C(C)c2ccc(C(F)(F)F)cc2)c2nc(CF)[nH]c(=O)c12 (stereo not drawn) [Example 51, 6-(Fluoromethyl)-3-methyl-1-{1-[4-(trifluoromethyl)phenyl]ethyl}-1,5-dihydro-4H-pyrazolo[3,4-d]pyrimidin-4-one] | 79 | –
Cc1nc2c(c(CF)nn2C(C)c2ccc(OC(F)(F)F)c(F)c2)c(=O)[nH]1 (single isomer, unassigned) [Example 216, (R)- or (S)-1-(1-(3-Fluoro-4-(trifluoromethoxy)phenyl)ethyl)-3-(fluoromethyl)-6-methyl-1H-pyrazolo[3,4-d]pyrimidin-4(5H)-one] | 19 | 41
COc1cccc(-c2nc3c(c(C)nn3C(C)c3ccc(C(F)(F)F)cc3)c(=O)[nH]2)c1 (stereo not drawn) [Example 47, 6-(3-Methoxyphenyl)-3-methyl-1-{1-[4-(trifluoromethyl)phenyl]ethyl}-1,5-dihydro-4H-pyrazolo[3,4-d]pyrimidin-4-one] | 18 | –
Cc1nc2c(c(CO)nn2[C@@H](C)c2ccc(C(C)(C)C)cc2)c(=O)[nH]1 [Example 157, (S)-1-(1-(4-tert-Butylphenyl)ethyl)-3-(hydroxymethyl)-6-methyl-1H-pyrazolo[3,4-d]pyrimidin-4(5H)-one] | – | 0.96
Cc1nn(C(C)c2ccc(C(F)(F)F)cc2)c2nc(Cc3cccc(O)c3)[nH]c(=O)c12 (stereo not drawn) [Example 30, 6-(3-Hydroxybenzyl)-3-methyl-1-(1-(4-(trifluoromethyl)phenyl)ethyl)-1H-pyrazolo[3,4-d]pyrimidin-4(5H)-one] | 6.6 | 11
Cc1nc2c(c(C(C)O)nn2C(C)c2ccc(C(F)(F)F)cc2)c(=O)[nH]1 (stereo not drawn) [Example 328, 3-(1-Hydroxyethyl)-6-methyl-1-{1-[4-(trifluoromethyl)phenyl]ethyl}-1,5-dihydro-4H-pyrazolo[3,4-d]pyrimidin-4-one] | 22 | 33
Cc1nn(C(C)c2ccc(C(F)(F)F)cc2)c2nc(C3CCCC3)[nH]c(=O)c12 (stereo not drawn) [Example 40, 6-Cyclopentyl-3-methyl-1-{1-[4-(trifluoromethyl)phenyl]ethyl}-1,5-dihydro-4H-pyrazolo[3,4-d]pyrimidin-4-one] | 340 | –
Cc1nc2c(c(C(F)F)nn2C(c2ccc(OC(F)(F)F)c(F)c2)C2CC2)c(=O)[nH]1 (stereo not drawn) [Example 193, 1-(Cyclopropyl(3-fluoro-4-(trifluoromethoxy)phenyl)methyl)-3-(difluoromethyl)-6-methyl-1H-pyrazolo[3,4-d]pyrimidin-4(5H)-one] | – | 1.2
